# Data reported in US11098102B2, “Insulin conjugates” (SANOFI, priority 2018, dated 2021).
# Target: T1, immobilized human serum albumin (Homo sapiens, UniProt P02768)
# T1 construct: purchased Chiralpak (Chiraltech) 34712
# Assay: Albumin binding: affinity chromatography on columns with immobilized human serum albumin (net retention time)
# Conditions: isolated binders; HSA column 25° C., PBS pH 7.4/isopropanol gradient
# Experimental: In order to identify suitable binder molecules, which when bound to a peptide, such as an insulin, are able to improve the half-life in plasma and to prolong the profile of action, a system was established based on affinity chromatography with serum albumin columns, i.e. columns with immobilized serum albumin.
# The net retention time of the binders (samples) was calculated according to the following formula: Net retention time=RetTimeSample−RetTimet0 marker
# • Instrument: Waters Alliance 2795/Waters PDA 2996 or Waters H-Class UPLC equipped with a Waters Acquity photodiode-array detector • Software: Waters Empower 3 • Column: […]® HSA 50×4 mm; 5 μm Particle size • Chiraltech Order Numbers: HSA: 34712 • Eluent A: Phosphate Buffer saline (PBS) at pH=7.4 • Gibco PBS pH7.4 (10×) Phosphate Buffered Saline 500 ml; • Order Number: 70011-036 (500 ml) • Eluent B: Isopropanol • Fisher Order Number: A461-1 (10 • Gradient:
# • Column temperature: 25° C. • Flow rate: 1.0 ml/min • Detection: λ=220 nm • Injection volume: 20 μL • Sample Conc.: 1 mg/ml insulin solution in PBS for insulin samples • 5 μL of 10 mM DMSO stock solution (DMSO evaporated and re-dissolved in 200 μL i-propanol/water 1:1 v/v) for isolated binder samples (250 μM, 0.2 mg/ml at 800 Da MolWeight) • t0 marker Sodium Nitrate (NaNO3) solution in water, 0.05 mg/ml • Diluted from aqueous 1 mg/ml stock solution (Fluka Order Number: 74246-100ML) • Reported Value Net retention time of sample: RetTime Sample−RetTime t0 marker
# Affinity chromatography was carried out i) for insulin conjugates according to Examples 3.3 and 3.4 on a Waters Alliance Separation Module 2695 equipped with a Waters photodiode-array detector 2996 or Waters H-Class UPLC equipped with a Waters Acquity photodiode-array detector and ii) for isolated binders according to Example 2.11 on a Waters Alliance Separation Module 2795 equipped with a Waters photodiode-array detector 2996 or Waters H-Class UPLC equipped with a Waters Acquity photodiode-array detector.
# Columns with immobilized human serum albumin (50×4 mm; 5 μm particle size) were purchased from Chiralpak and used for separations.
# The columns with immobilized serum albumin were kept at 25° C. during the LC run, UV detection was carried out at 220 nm and injection volume was 20 μL.
# The net retention time of the samples was reported according to Net retention time=RetTime Sample−RetTime t0 marker
# T1 sequence (P02768 25-609): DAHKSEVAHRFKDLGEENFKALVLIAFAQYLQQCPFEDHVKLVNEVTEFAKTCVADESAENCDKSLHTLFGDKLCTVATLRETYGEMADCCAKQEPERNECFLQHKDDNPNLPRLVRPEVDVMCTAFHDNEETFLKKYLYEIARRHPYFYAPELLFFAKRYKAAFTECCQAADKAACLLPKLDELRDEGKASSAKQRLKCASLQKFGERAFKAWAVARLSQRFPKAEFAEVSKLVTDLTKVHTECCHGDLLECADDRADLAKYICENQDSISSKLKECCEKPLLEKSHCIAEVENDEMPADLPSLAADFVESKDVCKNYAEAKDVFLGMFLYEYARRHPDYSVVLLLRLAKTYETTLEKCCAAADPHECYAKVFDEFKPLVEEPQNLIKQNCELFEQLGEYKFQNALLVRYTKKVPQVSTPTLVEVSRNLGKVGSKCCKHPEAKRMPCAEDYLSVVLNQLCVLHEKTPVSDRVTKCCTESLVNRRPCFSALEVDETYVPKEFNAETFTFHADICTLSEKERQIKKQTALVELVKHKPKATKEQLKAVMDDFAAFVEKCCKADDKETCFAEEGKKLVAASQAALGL
row,NRT [min] (net retention time on columns with immobilized human serum albumin),SMILES
1,16.76,O=C(O)CCCCCCCCCc1ccc(OCc2ccc(S(=O)(=O)Nc3ncc(C(=O)NCCOCCOCC(=O)NCCOCCOCC(=O)O)cn3)cc2)cc1 [Binder 1]
2,14.32,O=C(O)CCCCCCCCCCCCCCOc1ccc(S(=O)(=O)Nc2ncc(C(=O)NCCOCCOCC(=O)NCCOCCOCC(=O)O)cn2)cc1 [Binder 5]
3,16.26,O=C(O)CCCCCCCCCCCCCc1cccc(S(=O)(=O)Nc2ccc(C(=O)NCCOCCOCC(=O)NCCOCCOCC(=O)O)cn2)c1 [Binder 21]
4,14.98,O=C(O)CCCCCCCCCCCCCCCCCc1cccc(S(=O)(=O)Nc2ncc(C(=O)NCCOCCOCC(=O)NCCOCCOCC(=O)O)cn2)c1 [Binder 41]
5,14.35,O=C(O)CCCCCCCCCCCCCc1ccc(Oc2ccc(S(=O)(=O)Nc3ccc(C(=O)NCCOCCOCC(=O)NCCOCCOCC(=O)O)cn3)cc2)cc1 [Binder 42]
6,11.36,O=C(O)CCCCCCCc1ccc(CCOc2ccc(S(=O)(=O)Nc3ccc(C(=O)NCCOCCOCC(=O)NCCOCCOCC(=O)O)cn3)cc2)cc1 [Binder 43]
7,15.04,O=C(O)CCCCCCCCCCCCCc1ccc(OCc2ccc(S(=O)(=O)Nc3ccc(C(=O)NCCOCCOCC(=O)NCCOCCOCC(=O)O)cn3)cc2)cc1 [Binder 44]
8,13.8,O=C(O)CCCCCCCCCCCCCCCOc1ccc(S(=O)(=O)Nc2ncc(C(=O)NCCOCCOCC(=O)NCCOCCOCC(=O)O)c(C(F)(F)F)n2)cc1 [Binder 45]
9,14.48,O=C(O)CCCCCCCc1ccc(CCOc2ccc(S(=O)(=O)Nc3ccc(C(=O)NCCOCCOCC(=O)NCCOCCOCC(=O)O)cn3)cc2)cc1 [Binder 46]
10,13.73,Cc1nc(NS(=O)(=O)c2ccc(OCCCCCCCCCCCCCCCC(=O)O)cc2)ncc1C(=O)NCCOCCOCC(=O)NCCOCCOCC(=O)O [Binder 47]
11,13.74,O=C(O)CCCCCCCCCCCCCCCOc1ccc(S(=O)(=O)Nc2ncc(C(=O)NCCOCCOCC(=O)NCCOCCOCC(=O)O)cn2)cc1Cl [Binder 50]
12,13.59,O=C(O)CCCCCCCCCCCCCCCOc1ccc(S(=O)(=O)Nc2ccc(C(=O)NCCOCCOCC(=O)NCCOCCOCC(=O)O)cn2)cc1Cl [Binder 51]
13,14.56,O=C(O)CCCCCCCCCc1ccc(Oc2ccc(S(=O)(=O)Nc3ncc(C(=O)NCCOCCOCC(=O)NCCOCCOCC(=O)O)cn3)cc2)cc1F [Binder 52]
14,12.29,O=C(O)CCCCCCCCCCCc1ccc(S(=O)(=O)Nc2ncc(C(=O)NCCOCCOCC(=O)NCCOCCOCC(=O)O)cn2)cc1 [Binder 53]
15,15.19,O=C(O)CCCCCCCCCCCCCCCc1ccc(S(=O)(=O)Nc2ncc(C(=O)NCCOCCOCC(=O)NCCOCCOCC(=O)O)cn2)cc1 [Binder 54]
16,15.01,O=C(O)CCCCCCCCCCCCCCCCCc1cccc(S(=O)(=O)Nc2ncc(C(=O)NCCOCCOCC(=O)NCCOCCOCC(=O)O)cn2)c1 [Binder 55]
17,15.47,O=C(O)CCCCCCCCCCCCCCCc1ccc(S(=O)(=O)Nc2ccc(C(=O)NCCOCCOCC(=O)NCCOCCOCC(=O)O)cn2)cc1 [Binder 59]
18,13.42,O=C(O)CCCCCCCc1cc(Oc2ccc(S(=O)(=O)Nc3ncc(C(=O)NCCOCCOCC(=O)NCCOCCOCC(=O)O)cn3)cc2)ccc1F [Binder 63]
19,14.78,O=C(O)CCCCCCCCCCCCCc1ccc(OCc2ccc(S(=O)(=O)Nc3ncc(C(=O)NCCOCCOCC(=O)NCCOCCOCC(=O)O)cn3)cc2)cc1 [Binder 64]
20,9.87,O=C(O)CCCCCCCCCc1ccc(S(=O)(=O)Nc2ncc(C(=O)NCCOCCOCC(=O)NCCOCCOCC(=O)O)cn2)cc1 [Binder 66]
21,10.99,O=C(O)CCCCCCCCCc1ccc(S(=O)(=O)Nc2ccc(C(=O)NCCOCCOCC(=O)NCCOCCOCC(=O)O)cn2)cc1 [Binder 67]
22,14.74,O=C(O)CCCCCCCCCCCCCCCOc1cccc(S(=O)(=O)Nc2ncc(C(=O)NCCOCCOCC(=O)NCCOCCOCC(=O)O)cn2)c1 [Binder 68]
23,14.24,O=C(O)CCCCCCCCCCCCCCCCCOc1ccc(S(=O)(=O)Nc2ncc(C(=O)NCCOCCOCC(=O)NCCOCCOCC(=O)O)cn2)cc1 [Binder 69]
24,14.26,O=C(O)CCCCCCCCCCCCCCCCCOc1ccc(S(=O)(=O)Nc2ccc(C(=O)NCCOCCOCC(=O)NCCOCCOCC(=O)O)cn2)cc1 [Binder 70]
25,14.42,O=C(O)CCCCCCCCCCCCCCCCCCCOc1ccc(S(=O)(=O)Nc2ccc(C(=O)NCCOCCOCC(=O)NCCOCCOCC(=O)O)cn2)cc1 [Binder 71]
26,13.96,O=C(O)CCCCCCCCCCCCCCCOc1cc(Cl)c(S(=O)(=O)Nc2ncc(C(=O)NCCOCCOCC(=O)NCCOCCOCC(=O)O)cn2)cc1Cl [Binder 72]

row,SMILES,NRT [min] (net retention time on columns with immobilized human serum albumin)
1,O=C(O)CCCCCCCCCCCCCCOc1ccc(S(=O)(=O)Nc2ncc(C(=O)CCCCCCC(=O)NCCOCCOCC(=O)NCCOCCOCC(=O)O)cn2)cc1 [Binder 6],14.31
2,O=C(O)CCCCCCCCCCCCCc1cc(Oc2ccc(S(=O)(=O)Nc3ncc(C(=O)NCCOCCOCC(=O)NCCOCCOCC(=O)O)cn3)cc2)ccc1F [Binder 8],15.29
3,O=C(O)CCCCCCCCCCCCCCOc1ccc(S(=O)(=O)Nc2ccc(C(=O)NCCOCCOCC(=O)NCCOCCOCC(=O)O)cn2)cc1 [Binder 9],14.01
4,O=C(O)CCCCCCCCCCCc1ccc(Oc2ccc(S(=O)(=O)Nc3ccc(C(=O)NCCOCCOCC(=O)NCCOCCOCC(=O)O)cn3)cc2)cc1 [Binder 27],15.01
5,O=C(O)CCCCCCCCCCCCCc1cccc(S(=O)(=O)Nc2ncc(C(=O)NCCOCCOCC(=O)NCCOCCOCC(=O)O)cn2)c1 [Binder 29],15.66
6,O=C(O)CCCCCCCCCCCc1cccc(S(=O)(=O)Nc2ccc(C(=O)NCCOCCOCC(=O)NCCOCCOCC(=O)O)cn2)c1 [Binder 65],12.21

# Target: insulin receptor isoform B (IR-B) (Homo sapiens, UniProt P06213)
# Sequence (P06213 28-758 limits assumed): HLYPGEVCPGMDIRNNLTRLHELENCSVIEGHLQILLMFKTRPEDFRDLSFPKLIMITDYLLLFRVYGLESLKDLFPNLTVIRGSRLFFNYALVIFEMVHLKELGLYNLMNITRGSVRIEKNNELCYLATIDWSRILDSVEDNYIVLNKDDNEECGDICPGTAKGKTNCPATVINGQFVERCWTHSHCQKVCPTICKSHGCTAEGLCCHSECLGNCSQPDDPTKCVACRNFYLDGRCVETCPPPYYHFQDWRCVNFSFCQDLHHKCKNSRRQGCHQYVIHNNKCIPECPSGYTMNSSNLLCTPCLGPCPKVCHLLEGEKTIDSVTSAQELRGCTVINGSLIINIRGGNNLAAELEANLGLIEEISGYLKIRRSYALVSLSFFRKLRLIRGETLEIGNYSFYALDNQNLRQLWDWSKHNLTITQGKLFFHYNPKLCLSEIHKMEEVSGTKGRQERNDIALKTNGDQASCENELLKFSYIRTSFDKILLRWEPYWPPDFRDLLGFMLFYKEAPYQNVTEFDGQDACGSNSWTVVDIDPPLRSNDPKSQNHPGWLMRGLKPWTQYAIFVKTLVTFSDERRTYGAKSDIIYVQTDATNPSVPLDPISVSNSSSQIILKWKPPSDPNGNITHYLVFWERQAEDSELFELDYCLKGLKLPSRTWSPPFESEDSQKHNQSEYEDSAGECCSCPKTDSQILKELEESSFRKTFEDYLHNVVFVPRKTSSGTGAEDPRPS
# Sequence (P06213 763-1382 limits assumed): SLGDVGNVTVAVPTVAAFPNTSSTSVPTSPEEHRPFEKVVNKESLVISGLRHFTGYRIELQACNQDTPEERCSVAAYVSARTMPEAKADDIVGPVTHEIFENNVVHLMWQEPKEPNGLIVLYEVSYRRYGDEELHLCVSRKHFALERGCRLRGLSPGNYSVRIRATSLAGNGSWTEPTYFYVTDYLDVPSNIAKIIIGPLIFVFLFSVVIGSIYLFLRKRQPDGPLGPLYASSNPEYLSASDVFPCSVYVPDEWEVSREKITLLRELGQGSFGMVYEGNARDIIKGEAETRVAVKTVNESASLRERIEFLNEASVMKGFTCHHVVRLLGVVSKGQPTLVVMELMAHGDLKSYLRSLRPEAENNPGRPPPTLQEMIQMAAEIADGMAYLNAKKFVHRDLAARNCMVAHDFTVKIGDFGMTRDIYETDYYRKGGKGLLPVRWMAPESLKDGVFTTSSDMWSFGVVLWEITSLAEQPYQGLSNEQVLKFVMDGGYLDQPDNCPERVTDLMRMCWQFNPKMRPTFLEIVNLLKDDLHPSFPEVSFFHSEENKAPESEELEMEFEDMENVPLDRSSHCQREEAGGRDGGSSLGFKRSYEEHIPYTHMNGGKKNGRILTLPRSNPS
# Assay: Insulin receptor autophosphorylation assay (In-Cell Western, CHO cells, Example 8B)
# Assay type: cell-based
# Set-up: expressed in transfected cells; host or cells: CHO cells
# Conditions: relative to human insulin
row,SMILES,autophosphorylation activity
1,O=C(O)CCCCCCCCCCCCCCOc1ccc(S(=O)(=O)Nc2ncc(C(=O)CCCCCCC(=O)NCCOCCOCC(=O)NCCOCCOCC(=O)O)cn2)cc1 [Binder 6],0.32
2,O=C(O)CCCCCCCCCCCCCc1cc(Oc2ccc(S(=O)(=O)Nc3ncc(C(=O)NCCOCCOCC(=O)NCCOCCOCC(=O)O)cn3)cc2)ccc1F [Binder 8],0.17
3,O=C(O)CCCCCCCCCCCc1ccc(Oc2ccc(S(=O)(=O)Nc3ccc(C(=O)NCCOCCOCC(=O)NCCOCCOCC(=O)O)cn3)cc2)cc1 [Binder 27],0.11
4,O=C(O)CCCCCCCCCCCCCc1cccc(S(=O)(=O)Nc2ncc(C(=O)NCCOCCOCC(=O)NCCOCCOCC(=O)O)cn2)c1 [Binder 29],0.01
